A short description of series [1]: Permeability Papp (AB) MDR1/MDCKII. To be noted: for papp_b_to_a_mean: B to A; for perc_recovery_a_to_b_mean / perc_recovery_a_to_b_inhibitor_mean: recovery A to B; for perc_recovery_b_to_a_mean / perc_recovery_b_to_a_inhibitor_mean: recovery B to A.
The next series in a line: LogD. To be noted: pH 7.4; In vitro LogD.
Series [2] in a line: In vitro kinetic solubility. To be noted: In vitro kinetic solubility, ph 7.4.
The target of a further series is T1, Mnk2(h) (Homo sapiens, UniProt Q9HBH9).
T1 construct: gene MKNK2
Description: biochemical. More on the design: In vitro kinase panel profiling, per cent remaining kinase activity at 10 uM. To be noted: atp_concentration=120, read-out: % of control remaining. From the text: (§1) We derisk potential for off-target activity by profiling the compound in a CEREP panel, a standard secondary pharmacology assessment, as well as a kinase panel to derisk a potential hinge-binding motif in our leads, and a PARP panel to derisk activity against human […]. Reassuringly, the compounds are selective, with the only off-targets being moderate human CHRM2 and KOR receptors activity associated with ASAP-0011198.

A further series concerns the target T2, MSK2(h) (Homo sapiens, UniProt O75676).
T2 construct: gene RPS6KA4
Description: biochemical. Details: In vitro kinase panel profiling, per cent remaining kinase activity at 10 uM. To be noted: atp_concentration=45, read-out: % of control remaining.
Source text: as §1

The next series deals with T3, PKBα(h) (Homo sapiens, UniProt P31749).
T3 construct: gene AKT1
Nature of the series: biochemical. Details: In vitro kinase panel profiling, per cent remaining kinase activity at 10 uM. To be noted: atp_concentration=155, read-out: % of control remaining.
Source text: as §1

The next series deals with T4, CaMKI(h) (Homo sapiens, UniProt Q14012).
T4 construct: gene CAMK1
Description: biochemical. More on the design: In vitro kinase panel profiling, per cent remaining kinase activity at 10 uM. To be noted: atp_concentration=200, read-out: % of control remaining.
Source text: as §1

A further series deals with T5, MST1(h) (Homo sapiens, UniProt Q13043).
T5 construct: gene STK4
T5 sequence (Q13043 1-487): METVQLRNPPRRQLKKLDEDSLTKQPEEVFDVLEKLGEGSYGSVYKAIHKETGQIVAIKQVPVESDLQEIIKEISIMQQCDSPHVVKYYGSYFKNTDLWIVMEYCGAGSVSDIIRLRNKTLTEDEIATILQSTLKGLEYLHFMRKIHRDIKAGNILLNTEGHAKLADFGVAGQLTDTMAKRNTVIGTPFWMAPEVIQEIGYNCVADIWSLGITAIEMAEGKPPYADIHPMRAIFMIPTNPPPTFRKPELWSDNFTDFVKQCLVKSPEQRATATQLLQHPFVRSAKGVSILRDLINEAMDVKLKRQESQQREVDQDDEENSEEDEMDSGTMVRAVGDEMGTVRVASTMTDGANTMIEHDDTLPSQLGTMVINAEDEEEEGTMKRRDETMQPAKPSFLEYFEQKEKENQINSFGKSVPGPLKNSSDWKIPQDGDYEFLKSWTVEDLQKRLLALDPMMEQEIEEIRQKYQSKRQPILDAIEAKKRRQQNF
Nature of the series: biochemical. More on the design: In vitro kinase panel profiling, per cent remaining kinase activity at 10 uM. To be noted: atp_concentration=90, read-out: % of control remaining.
Source text: as §1

For a further series, the target named is T6, MLK1(h) (Homo sapiens, UniProt P80192).
T6 construct: gene MAP3K9
Nature of the series: biochemical. More on the design: In vitro kinase panel profiling, per cent remaining kinase activity at 10 uM. To be noted: atp_concentration=45, read-out: % of control remaining.
Source text: as §1

The target of another series is T7, NEK2(h) (Homo sapiens, UniProt P51955).
T7 sequence (P51955 1-445): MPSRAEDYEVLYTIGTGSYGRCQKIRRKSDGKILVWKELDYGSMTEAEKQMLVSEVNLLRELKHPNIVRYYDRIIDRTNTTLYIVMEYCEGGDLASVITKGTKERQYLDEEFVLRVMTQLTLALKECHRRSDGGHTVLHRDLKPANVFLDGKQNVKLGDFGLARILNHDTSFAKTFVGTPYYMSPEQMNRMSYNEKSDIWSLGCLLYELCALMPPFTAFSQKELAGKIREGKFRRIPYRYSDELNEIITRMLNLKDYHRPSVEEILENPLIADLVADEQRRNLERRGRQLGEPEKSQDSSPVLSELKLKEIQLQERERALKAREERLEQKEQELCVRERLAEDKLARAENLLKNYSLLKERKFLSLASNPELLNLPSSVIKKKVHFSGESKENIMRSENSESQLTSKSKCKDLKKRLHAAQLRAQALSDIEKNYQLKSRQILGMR
Nature of the series: biochemical. Details: In vitro kinase panel profiling, per cent remaining kinase activity at 10 uM. To be noted: atp_concentration=120, read-out: % of control remaining.
Source text: as §1

A further series deals with T8, SAPK2a(h) (Homo sapiens, UniProt Q16539).
T8 construct: gene MAPK14
Nature of the series: biochemical. Details: In vitro kinase panel profiling, per cent remaining kinase activity at 10 uM. To be noted: atp_concentration=90, read-out: % of control remaining.
Source text: as §1

The target of another series is T9, Abl(h) (Homo sapiens, UniProt P00519).
T9 construct: gene ABL1
Description: biochemical. More on the design: In vitro kinase panel profiling, per cent remaining kinase activity at 10 uM. To be noted: atp_concentration=45, read-out: % of control remaining.
Source text: as §1

A further series concerns the target T10, AMPKα1(h) (Homo sapiens, UniProt Q13131).
T10 construct: gene PRKAA1
Nature of the series: biochemical. To be noted: atp_concentration=45, read-out: % of control remaining. Details: In vitro kinase panel profiling, per cent remaining kinase activity at 10 uM.
Source text: as §1

A further series has as its target T11, CK2α2(h) (Homo sapiens, UniProt P19784).
T11 construct: gene CSNK2A2
Description: biochemical. More on the design: In vitro kinase panel profiling, per cent remaining kinase activity at 10 uM. To be noted: atp_concentration=10, read-out: % of control remaining.
Source text: as §1

In series [3] the target is T12, PI3 Kinase (p110β/p85α)(h) (Homo sapiens, UniProt P42338).
T12 construct: gene PIK3CB
Description: biochemical. Details: In vitro kinase panel profiling, per cent remaining kinase activity at 10 uM. To be noted: atp_concentration=200, read-out: % of control remaining.
Source text: as §1

The target of the next series is T13, CK1γ1(h) (Homo sapiens, UniProt Q9HCP0).
T13 construct: gene CSNK1G1
Nature of the series: biochemical. More on the design: In vitro kinase panel profiling, per cent remaining kinase activity at 10 uM. To be noted: atp_concentration=15, read-out: % of control remaining.
Source text: as §1

Setting [4] is: In vitro MDR1-MDCKII permeability, A to B, mean.
The mark [5] stands for this setting: In vitro MDR1-MDCKII permeability, A to B, no inhibitor.
Where [6] appears, read: In vitro MDR1-MDCKII permeability, no inhibitor.
[7] abbreviates: In vitro MDR1-MDCKII permeability, mean.
The mark [8] stands for this setting: MDR1-MDCKII, with inhibitor Cyclosporin A.
The mark [9] stands for this setting: MDR1-MDCKII, with inhibitor Verapamil.

Values after ≈ are worked out from the molar mass of the structure shown. Values joined by “and” are separate entries in the source; they are usually repeats but may differ in a detail not shown here. Equal values may be shown once. Read-outs that look alike come from different tables or passages of the source.

T2 sequence (O75676 whole entry): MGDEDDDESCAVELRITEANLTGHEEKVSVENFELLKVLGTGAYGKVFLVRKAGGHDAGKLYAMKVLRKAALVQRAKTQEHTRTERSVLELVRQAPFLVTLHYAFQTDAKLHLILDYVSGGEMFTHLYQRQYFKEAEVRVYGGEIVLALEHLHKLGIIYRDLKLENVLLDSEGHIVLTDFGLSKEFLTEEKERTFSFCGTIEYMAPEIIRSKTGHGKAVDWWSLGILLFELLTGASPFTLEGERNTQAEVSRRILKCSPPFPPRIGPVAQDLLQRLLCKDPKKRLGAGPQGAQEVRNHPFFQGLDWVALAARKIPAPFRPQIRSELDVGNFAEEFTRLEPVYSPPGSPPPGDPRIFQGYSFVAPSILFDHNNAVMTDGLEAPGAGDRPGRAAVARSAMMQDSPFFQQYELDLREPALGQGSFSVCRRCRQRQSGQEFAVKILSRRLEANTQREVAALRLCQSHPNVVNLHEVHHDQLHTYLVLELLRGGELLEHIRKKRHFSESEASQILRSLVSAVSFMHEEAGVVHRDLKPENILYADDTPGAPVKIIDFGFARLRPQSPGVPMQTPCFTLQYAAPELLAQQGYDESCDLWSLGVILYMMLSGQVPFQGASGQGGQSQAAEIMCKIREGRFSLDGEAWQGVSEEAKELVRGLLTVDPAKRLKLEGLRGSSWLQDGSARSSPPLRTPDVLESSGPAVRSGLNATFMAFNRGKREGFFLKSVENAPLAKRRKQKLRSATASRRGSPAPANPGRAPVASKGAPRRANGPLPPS
T1 sequence (Q9HBH9 whole entry): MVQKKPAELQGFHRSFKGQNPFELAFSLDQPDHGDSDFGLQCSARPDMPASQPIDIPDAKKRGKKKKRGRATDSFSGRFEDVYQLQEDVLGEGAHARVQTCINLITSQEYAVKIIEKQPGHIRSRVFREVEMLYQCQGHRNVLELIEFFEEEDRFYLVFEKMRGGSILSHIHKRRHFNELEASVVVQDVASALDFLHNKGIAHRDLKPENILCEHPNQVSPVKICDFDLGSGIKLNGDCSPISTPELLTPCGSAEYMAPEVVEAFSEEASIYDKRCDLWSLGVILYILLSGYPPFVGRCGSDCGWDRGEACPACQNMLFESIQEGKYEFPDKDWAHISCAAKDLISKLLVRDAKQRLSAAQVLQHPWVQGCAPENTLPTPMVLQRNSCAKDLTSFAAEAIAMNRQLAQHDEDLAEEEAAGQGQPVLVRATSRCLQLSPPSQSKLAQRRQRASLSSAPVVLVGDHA
T11 sequence (P19784 whole entry): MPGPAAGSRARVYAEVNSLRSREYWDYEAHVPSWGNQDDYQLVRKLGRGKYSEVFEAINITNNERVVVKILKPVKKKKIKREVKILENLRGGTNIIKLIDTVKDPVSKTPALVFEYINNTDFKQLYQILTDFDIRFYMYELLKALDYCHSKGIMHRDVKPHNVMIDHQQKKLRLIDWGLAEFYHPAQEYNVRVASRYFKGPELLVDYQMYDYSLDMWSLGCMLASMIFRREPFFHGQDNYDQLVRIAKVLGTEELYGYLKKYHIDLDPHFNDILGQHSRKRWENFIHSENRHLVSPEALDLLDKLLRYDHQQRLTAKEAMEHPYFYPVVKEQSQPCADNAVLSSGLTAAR
T10 sequence (Q13131 whole entry): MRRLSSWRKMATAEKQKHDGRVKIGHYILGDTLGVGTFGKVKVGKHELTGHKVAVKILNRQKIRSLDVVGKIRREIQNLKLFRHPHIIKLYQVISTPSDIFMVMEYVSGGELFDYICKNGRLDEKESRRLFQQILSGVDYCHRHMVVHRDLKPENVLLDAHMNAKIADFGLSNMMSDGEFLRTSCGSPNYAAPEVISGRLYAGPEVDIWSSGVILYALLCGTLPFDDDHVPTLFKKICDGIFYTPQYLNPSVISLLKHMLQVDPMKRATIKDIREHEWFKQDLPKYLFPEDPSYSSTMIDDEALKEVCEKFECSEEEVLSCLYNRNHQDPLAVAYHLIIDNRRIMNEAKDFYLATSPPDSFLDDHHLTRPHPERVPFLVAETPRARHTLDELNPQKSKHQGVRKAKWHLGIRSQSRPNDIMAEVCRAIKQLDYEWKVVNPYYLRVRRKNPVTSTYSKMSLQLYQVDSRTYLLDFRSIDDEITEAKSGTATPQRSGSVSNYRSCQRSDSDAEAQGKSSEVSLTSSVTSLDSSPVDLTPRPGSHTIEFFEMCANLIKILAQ
T10 sequence (P54619 whole entry partner): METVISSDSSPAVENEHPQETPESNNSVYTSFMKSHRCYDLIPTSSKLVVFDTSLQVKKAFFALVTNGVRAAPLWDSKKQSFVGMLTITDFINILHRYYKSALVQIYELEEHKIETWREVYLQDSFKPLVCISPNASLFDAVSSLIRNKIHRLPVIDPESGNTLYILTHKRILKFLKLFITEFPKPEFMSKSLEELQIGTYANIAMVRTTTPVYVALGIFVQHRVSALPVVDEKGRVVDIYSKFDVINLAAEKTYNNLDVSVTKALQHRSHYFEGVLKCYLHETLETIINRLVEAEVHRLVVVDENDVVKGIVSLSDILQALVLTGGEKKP
T10 sequence (Q9Y478 whole entry partner): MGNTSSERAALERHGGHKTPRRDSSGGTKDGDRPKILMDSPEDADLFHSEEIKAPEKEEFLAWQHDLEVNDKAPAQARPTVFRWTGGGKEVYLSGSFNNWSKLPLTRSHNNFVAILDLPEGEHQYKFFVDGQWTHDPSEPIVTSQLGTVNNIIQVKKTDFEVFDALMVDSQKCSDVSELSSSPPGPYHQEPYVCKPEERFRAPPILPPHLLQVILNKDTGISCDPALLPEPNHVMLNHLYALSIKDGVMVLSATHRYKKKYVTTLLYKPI
T6 sequence (P80192 whole entry): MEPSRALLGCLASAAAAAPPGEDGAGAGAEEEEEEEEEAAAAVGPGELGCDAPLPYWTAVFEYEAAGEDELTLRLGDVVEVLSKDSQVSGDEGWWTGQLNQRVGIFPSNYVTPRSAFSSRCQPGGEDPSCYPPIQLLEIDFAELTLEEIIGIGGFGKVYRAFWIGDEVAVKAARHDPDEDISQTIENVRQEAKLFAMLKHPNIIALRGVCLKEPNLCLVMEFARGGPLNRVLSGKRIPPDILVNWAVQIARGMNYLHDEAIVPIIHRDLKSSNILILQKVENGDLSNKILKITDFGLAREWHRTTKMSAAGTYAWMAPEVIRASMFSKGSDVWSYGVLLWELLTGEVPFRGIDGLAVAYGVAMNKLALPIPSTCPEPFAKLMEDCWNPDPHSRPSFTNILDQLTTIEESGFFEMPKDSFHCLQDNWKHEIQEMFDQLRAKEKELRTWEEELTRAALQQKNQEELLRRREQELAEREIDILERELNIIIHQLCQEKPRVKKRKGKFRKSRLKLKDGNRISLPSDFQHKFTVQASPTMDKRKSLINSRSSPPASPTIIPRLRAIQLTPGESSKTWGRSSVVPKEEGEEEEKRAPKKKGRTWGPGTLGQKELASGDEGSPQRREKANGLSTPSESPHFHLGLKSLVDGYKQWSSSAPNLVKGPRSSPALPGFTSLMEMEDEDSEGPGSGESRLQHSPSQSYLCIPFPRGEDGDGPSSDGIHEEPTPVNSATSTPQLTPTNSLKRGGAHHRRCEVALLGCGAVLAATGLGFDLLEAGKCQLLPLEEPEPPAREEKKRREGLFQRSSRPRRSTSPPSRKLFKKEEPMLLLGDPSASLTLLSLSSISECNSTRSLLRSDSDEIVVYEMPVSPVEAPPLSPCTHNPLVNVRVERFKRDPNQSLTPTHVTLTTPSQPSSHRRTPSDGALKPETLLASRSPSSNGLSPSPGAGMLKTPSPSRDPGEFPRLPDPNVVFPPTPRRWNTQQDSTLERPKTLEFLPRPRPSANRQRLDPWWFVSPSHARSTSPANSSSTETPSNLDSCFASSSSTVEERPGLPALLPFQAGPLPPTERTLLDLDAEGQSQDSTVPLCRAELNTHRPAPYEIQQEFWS
T9 sequence (P00519 whole entry): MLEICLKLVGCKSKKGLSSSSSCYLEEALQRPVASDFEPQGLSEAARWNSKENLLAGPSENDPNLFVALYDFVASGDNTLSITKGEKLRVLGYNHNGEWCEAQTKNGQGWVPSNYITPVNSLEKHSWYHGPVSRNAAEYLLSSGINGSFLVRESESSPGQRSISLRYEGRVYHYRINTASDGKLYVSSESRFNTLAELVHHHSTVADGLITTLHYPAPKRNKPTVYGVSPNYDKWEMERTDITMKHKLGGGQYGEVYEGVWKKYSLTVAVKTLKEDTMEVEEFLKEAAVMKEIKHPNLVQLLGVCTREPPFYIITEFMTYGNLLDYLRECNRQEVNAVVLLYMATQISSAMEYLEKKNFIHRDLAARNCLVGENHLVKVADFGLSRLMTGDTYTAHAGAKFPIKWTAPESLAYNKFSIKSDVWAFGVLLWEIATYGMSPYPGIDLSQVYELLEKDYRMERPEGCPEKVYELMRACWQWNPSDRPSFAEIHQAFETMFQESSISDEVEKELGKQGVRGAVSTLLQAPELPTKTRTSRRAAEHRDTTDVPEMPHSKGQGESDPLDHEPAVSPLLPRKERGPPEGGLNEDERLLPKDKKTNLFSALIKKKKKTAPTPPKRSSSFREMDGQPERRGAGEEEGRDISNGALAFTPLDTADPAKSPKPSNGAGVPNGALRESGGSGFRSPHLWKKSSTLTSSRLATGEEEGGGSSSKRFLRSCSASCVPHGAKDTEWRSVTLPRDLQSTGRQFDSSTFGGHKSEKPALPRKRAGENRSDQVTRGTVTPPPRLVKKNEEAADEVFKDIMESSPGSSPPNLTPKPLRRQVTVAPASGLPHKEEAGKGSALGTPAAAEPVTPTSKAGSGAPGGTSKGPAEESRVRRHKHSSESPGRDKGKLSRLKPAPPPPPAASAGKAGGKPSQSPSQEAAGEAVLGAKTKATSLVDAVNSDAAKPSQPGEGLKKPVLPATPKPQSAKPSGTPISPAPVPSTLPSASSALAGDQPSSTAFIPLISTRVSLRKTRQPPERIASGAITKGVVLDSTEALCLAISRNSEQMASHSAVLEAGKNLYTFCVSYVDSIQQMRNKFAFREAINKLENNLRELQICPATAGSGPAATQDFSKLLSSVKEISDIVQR

For the molecule `CC(C)[C@H](Nc1ncnc2[nH]ccc12)c1ccc2c(c1)S(=O)(=O)CCC2` [ASAP-0008674], the papp_a_to_b_mean in series [1] (setting [4]) was 5.5 ×10⁻⁶ cm/s; in [1] (setting [5]), 0.12 ×10⁻⁶ cm/s and 0.0631 ×10⁻⁶ cm/s. Besides, the papp_b_to_a_mean in series [1] (setting [6]) is 5.9 ×10⁻⁶ cm/s and 5.29 ×10⁻⁶ cm/s. Moreover, the efflux_ratio in [1] (setting [6]) was 49.5 and 83.8. In addition, the perc_recovery_a_to_b_mean in series [1] (setting [7]) is 85.4%; in series [1] (setting [6]) it was 80.0% and 78.8%. Besides, in series [1] (setting [6]), the perc_recovery_b_to_a_mean was 76.5% and 89.6%. Further, the figures for the perc_recovery_a_to_b_inhibitor_mean in series [1] (setting [8]) and in series [1] (setting [9]) were 83.2% and 90.5%, respectively. Further, the perc_recovery_b_to_a_inhibitor_mean in series [1] (setting [8]) is given as 87.0%; in [1] (setting [9]), 86.9%. In the series “LogD”, this molecule had a logd of 2.7. Besides, the solubility_mean in series [2] is 374 µM (≈ 139 µg/mL). The remaining activity at 10 µM on Mnk2(h) (batch_name=ASAP-0008674-002) stood at 98%; on MSK2(h) (batch_name=ASAP-0008674-002), 92%; at PKBα(h) (batch_name=ASAP-0008674-002) it was 95%; on CaMKI(h) (batch_name=ASAP-0008674-002), 92%; on MST1(h) (batch_name=ASAP-0008674-002) it was 126%; at MLK1(h) (batch_name=ASAP-0008674-002), 84%. In addition, the remaining activity at 10 µM at NEK2(h) (batch_name=ASAP-0008674-002) was found to be 109%; at SAPK2a(h) (batch_name=ASAP-0008674-002), 107%; at Abl(h) (batch_name=ASAP-0008674-002), 105%; on AMPKα1(h) (batch_name=ASAP-0008674-002), 104%; at CK2α2(h) (batch_name=ASAP-0008674-002), 87%; in series [3] (batch_name=ASAP-0008674-002), 100%. Moreover, the remaining activity at 10 µM at CK1γ1(h) (batch_name=ASAP-0008674-002) worked out at 97%.
In [1] (setting [6]), `CC(C)[C@H](Nc1ncnc2[nH]c(-c3cnn(C)c3C#N)cc12)c1ccc2c(n1)OCCO2` [ASAP-0010715] displayed a papp_b_to_a_mean of 5.98 ×10⁻⁶ cm/s. For the same molecule, in series [1] (setting [6]), the perc_recovery_a_to_b_mean was 70.1% and 79.9%. In series [1] (setting [6]), this molecule gave a perc_recovery_b_to_a_mean of 76.7%. The perc_recovery_a_to_b_inhibitor_mean in series [1] (setting [8]) is reported as 75.0%. Also, in series [1] (setting [8]), the perc_recovery_b_to_a_inhibitor_mean worked out at 76.7%. This molecule registered a logd in the series “LogD” of 3.7. This molecule registered a solubility_mean in series [2] of 53 µM (≈ 22.8 µg/mL). Further, the remaining activity at 10 µM was found to be 95% at Mnk2(h) (batch_name=ASAP-0010715-002); 114% on MSK2(h) (batch_name=ASAP-0010715-002); 90% at PKBα(h) (batch_name=ASAP-0010715-002); 104% at CaMKI(h) (batch_name=ASAP-0010715-002); 120% on MST1(h) (batch_name=ASAP-0010715-002); 73% at MLK1(h) (batch_name=ASAP-0010715-002). The remaining activity at 10 µM was found to be 105% on NEK2(h) (batch_name=ASAP-0010715-002); 99% at SAPK2a(h) (batch_name=ASAP-0010715-002); 57% at Abl(h) (batch_name=ASAP-0010715-002); 111% at AMPKα1(h) (batch_name=ASAP-0010715-002); 95% at CK2α2(h) (batch_name=ASAP-0010715-002); 86% in [3] (batch_name=ASAP-0010715-002). In addition, on CK1γ1(h) (batch_name=ASAP-0010715-002), the remaining activity at 10 µM was 100%.
On to `CC(C)[C@@H](Nc1ncnc2[nH]c(-c3cnn(C)c3C#N)cc12)c1ccc2c(n1)OCCO2` [ASAP-0010716], for which the papp_a_to_b_mean was 14.6 ×10⁻⁶ cm/s in series [1] (setting [4]); 1.05 ×10⁻⁶ cm/s and 1.02 ×10⁻⁶ cm/s and 0.676 ×10⁻⁶ cm/s in [1] (setting [5]). The papp_b_to_a_mean in [1] (setting [6]) is 6.5 ×10⁻⁶ cm/s and 6.1 ×10⁻⁶ cm/s and 8.26 ×10⁻⁶ cm/s. Also, the perc_recovery_a_to_b_mean in series [1] (setting [7]) was 85.7%; in series [1] (setting [6]) it was 67.5% and 74.0% and 87.7%. Moreover, the perc_recovery_b_to_a_mean in series [1] (setting [6]) was 70.0% and 84.4% and 95.1%. The papp_a_to_b_inhibitor_mean in series [1] (MDR1-MDCKII, A to B, with inhibitor Cyclosporin A) is 4.51 ×10⁻⁶ cm/s. Moreover, the perc_recovery_a_to_b_inhibitor_mean in series [1] (setting [8]) is 115.0% and 75.2%; in series [1] (setting [9]) it was 107.0%. For the same molecule, the perc_recovery_b_to_a_inhibitor_mean in series [1] (setting [8]) is 106.0% and 78.2%; in series [1] (setting [9]), 88.6%. In addition, the logd in the series “LogD” worked out at 3.9. The solubility_mean in [2] was 50 µM (≈ 21.5 µg/mL). Further, the remaining activity at 10 µM was found to be 83% on Mnk2(h) (batch_name=ASAP-0010716-002); 122% on MSK2(h) (batch_name=ASAP-0010716-002); 94% at PKBα(h) (batch_name=ASAP-0010716-002); 95% on CaMKI(h) (batch_name=ASAP-0010716-002); 121% on MST1(h) (batch_name=ASAP-0010716-002); 82% at MLK1(h) (batch_name=ASAP-0010716-002). Also, the remaining activity at 10 µM stood at 76% at NEK2(h) (batch_name=ASAP-0010716-002); 101% at SAPK2a(h) (batch_name=ASAP-0010716-002); 57% on Abl(h) (batch_name=ASAP-0010716-002); 99% at AMPKα1(h) (batch_name=ASAP-0010716-002); 93% on CK2α2(h) (batch_name=ASAP-0010716-002); 84% in [3] (batch_name=ASAP-0010716-002). Moreover, on CK1γ1(h) (batch_name=ASAP-0010716-002), the remaining activity at 10 µM was 99%.

The values are drawn from publication doi:10.1101/2024.08.19.608619, “Discovery of potent SARS-CoV-2 nsp3 macrodomain inhibitors uncovers lack of translation to cellular antiviral response” (bioRxiv, 2024).
